Tests used:
[1] = Cytotoxicity against human HepG2 cells assessed as cell growth inhibition incubated for 3 days by CellTiter-Glo reagent-based luminescence assay; format: toxicity
[2] = test system: Mycobacterium tuberculosis; experiment: Antibacterial activity against wild type Mycobacterium tuberculosis H37Rv-LP DREAM8 strain expressing codon-optimized DsRed assessed growth inhibition incubated for 5 days by fluorescence spectrophotometric assay; format: functional; conditions: H37Rv-LP DREAM8, 120 h, time 5 day
[3] = Selectivity index, ratio of IC50 for cytotoxicity against human HepG2 cells to IC90 for antibacterial activity against wild type Mycobacterium tuberculosis H37Rv-LP DREAM8 strain expressing codon-optimized DsRed; format: toxicity, cell-based

COc1ccc(-c2cc(C(F)(F)F)c3c(N)c(C(=O)NCCSC)sc3n2)cc1
IC50 at 3 days [1]: > 100 µM
IC90 [2]: 41 µM

Nc1c(C(=O)N2CCOCC2)sc2nc(-c3ccccc3)ccc12
IC50 at 3 days [1]: 56 µM
IC90 [2]: > 100 µM

CN(C)C(=O)c1sc2ncccc2c1N
IC50 at 3 days [1]: > 100 µM
IC90 [2]: > 100 µM

Nc1c(C(=O)N2CCOCC2)sc2ncccc12
IC50 at 3 days [1]: > 100 µM
IC90 [2]: > 100 µM

Nc1c(C(=O)Nc2ccccc2F)sc2nc(-c3ccccc3)cc(C(F)(F)F)c12
IC50 at 3 days [1]: > 100 µM
IC90 [2]: > 100 µM

COc1ccc(-c2cc(C(F)(F)F)c3c(N)c(C(=O)Nc4ccccc4)sc3n2)cc1
IC50 at 3 days [1]: > 100 µM
IC90 [2]: > 100 µM

COc1ccc(-c2ccc3c(N)c(C(=O)N4CCOCC4)sc3n2)cc1
IC50 at 3 days [1]: 63 µM
IC90 [2]: > 100 µM

Nc1c(C(=O)Nc2ccccc2C(F)(F)F)sc2nc(-c3ccccc3)cc(C(F)(F)F)c12
IC50 at 3 days [1]: 97 µM
IC90 [2]: > 100 µM

Nc1c(C(=O)N2CCOCC2)sc2nc(-c3cccnc3)ccc12
IC50 at 3 days [1]: > 100 µM
IC90 [2]: > 100 µM

Cc1cccc(NC(=O)c2sc3nc(-c4cccs4)cc(C(F)(F)F)c3c2N)c1
IC50 at 3 days [1]: 32 µM
IC90 [2]: > 100 µM

Nc1c(C(=O)N2CCCC2)sc2nc(-c3ccc4c(c3)OCO4)cc(C(F)(F)F)c12
IC50 at 3 days [1]: > 100 µM
IC90 [2]: > 100 µM

Cc1cccc(NC(=O)c2sc3nc(-c4ccco4)cc(C(F)(F)F)c3c2N)c1C
IC50 at 3 days [1]: > 100 µM
IC90 [2]: > 100 µM

COC1CN(C(=O)c2sc3nc(-c4ccccc4)ccc3c2N)C1
IC50 at 3 days [1]: 38 µM
IC90 [2]: > 100 µM

Nc1c(C(=O)NCc2ccccc2)sc2nc(-c3ccccc3)ccc12
IC50 at 3 days [1]: > 100 µM
IC90 [2]: > 100 µM

COc1ccc(-c2cc(C(F)(F)F)c3c(N)c(C(=O)Nc4cccc(C)c4C)sc3n2)cc1OC
IC50 at 3 days [1]: 42 µM
IC90 [2]: > 100 µM

Cc1cccc(NC(=O)c2sc3nc(-c4cccs4)cc(C(F)(F)F)c3c2N)c1C
IC50 at 3 days [1]: > 100 µM
IC90 [2]: > 100 µM

COc1ccc(-c2cc(C(F)(F)F)c3c(N)c(C(=O)NC4CC4)sc3n2)cc1
IC50 at 3 days [1]: > 100 µM
IC90 [2]: > 100 µM

COc1ccc(-c2cc(C(F)(F)F)c3c(N)c(C(=O)Nc4cccc(C)c4C)sc3n2)cc1
IC50 at 3 days [1]: 44 µM
IC90 [2]: 1.1 µM

COc1ccc(-c2cc(C(F)(F)F)c3c(N)c(C(=O)NC4CCC(c5ccc(C(C)(C)C)cc5)CC4)sc3n2)cc1 (stereo not given)
IC50 at 3 days [1]: > 10 µM
IC90 [2]: > 10 µM

Nc1c(C(=O)N2CCOCC2)sc2nc(Cl)ccc12
IC50 at 3 days [1]: > 100 µM
IC90 [2]: > 100 µM

COC1CN(C(=O)c2sc3ncccc3c2N)C1
IC50 at 3 days [1]: > 100 µM
IC90 [2]: > 100 µM

COc1ccc(-c2cc(C(F)(F)F)c3c(N)c(C(=O)Nc4cccc(C)c4F)sc3n2)cc1
IC50 at 3 days [1]: 42 µM
IC90 [2]: > 100 µM

Cc1cccc(CNC(=O)c2sc3nc(-c4ccc5c(c4)OCO5)cc(C(F)(F)F)c3c2N)c1C
IC50 at 3 days [1]: 44 µM
IC90 [2]: > 100 µM

Nc1c(C(=O)NCc2ccccc2)sc2ncccc12
IC50 at 3 days [1]: > 100 µM
IC90 [2]: > 100 µM

CN(C)C(=O)c1sc2nc(-c3ccccc3)ccc2c1N
IC50 at 3 days [1]: > 100 µM
IC90 [2]: > 100 µM

COc1ccc(-c2cc(C(F)(F)F)c3c(N)c(C(=O)Nc4c(C)cccc4C)sc3n2)cc1
IC50 at 3 days [1]: > 100 µM
IC90 [2]: > 100 µM

COc1ccc(-c2cc(C(F)(F)F)c3c(N)c(C(=O)NC45CC(C4)C5)sc3n2)cc1
IC50 at 3 days [1]: 36 µM
selectivity ratio [3]: < 1
IC90 [2]: > 50 µM

Nc1c(C(=O)N2CCOCC2)sc2nc(-c3ccc(F)cc3)ccc12
IC50 at 3 days [1]: 41 µM
IC90 [2]: > 100 µM

Cc1ccc(NC(=O)c2sc3nc(-c4ccccc4)cc(C(F)(F)F)c3c2N)cc1
IC50 at 3 days [1]: 24 µM
IC90 [2]: > 100 µM

CCNC(=O)c1sc2nc(-c3ccc(Cl)cc3Cl)cc(C(F)(F)F)c2c1N
IC50 at 3 days [1]: 36 µM
IC90 [2]: > 100 µM

COc1ccc(-c2cc(C)c3c(N)c(C(=O)Nc4cccc(C)c4C)sc3n2)cc1
IC50 at 3 days [1]: 27 µM
IC90 [2]: > 100 µM

COc1ccc(-c2cc(C(F)(F)F)c3c(N)c(C(=O)N4CC(C)OC(C)C4)sc3n2)cc1 (stereo not given)
IC50 at 3 days [1]: 44 µM
selectivity ratio [3]: < 1
IC90 [2]: > 50 µM

CCN(CC)C(=O)c1sc2ncccc2c1N
IC50 at 3 days [1]: > 100 µM
IC90 [2]: > 100 µM

Nc1c(C(=O)NC23CC4CC(CC(C4)C2)C3)sc2nc(-c3ccc4c(c3)OCO4)cc(C(F)(F)F)c12
IC50 at 3 days [1]: 81 µM
IC90 [2]: 0.68 µM

Nc1c(C(=O)N2CCOCC2)sc2nc(-c3ccoc3)ccc12
IC50 at 3 days [1]: 50 µM
IC90 [2]: > 100 µM

COc1ccc(-c2cc(C(F)(F)F)c3c(N)c(C(=O)N4CC5(CCOC5)C4)sc3n2)cc1
IC50 at 3 days [1]: 33 µM
selectivity ratio [3]: < 1
IC90 [2]: > 50 µM

COc1ccc(-c2cc(C(F)(F)F)c3c(N)c(C(=O)Nc4cccc(C)c4OC)sc3n2)cc1
IC50 at 3 days [1]: > 100 µM
IC90 [2]: > 100 µM

Cc1cccc(NC(=O)c2sc3nc(-c4ccc5c(c4)OCO5)cc(C(F)(F)F)c3c2N)c1C
IC50 at 3 days [1]: 46 µM
IC90 [2]: 0.94 µM

Nc1c(C(=O)Nc2cccnc2)sc2nc(-c3ccccc3)cc(C(F)(F)F)c12
IC50 at 3 days [1]: > 100 µM
IC90 [2]: > 100 µM

Cc1ccc(-c2cc(C(F)(F)F)c3c(N)c(C(=O)Nc4cccc(C)c4C)sc3n2)cc1
IC50 at 3 days [1]: 60 µM
IC90 [2]: > 100 µM

COCCNC(=O)c1sc2nc(-c3ccc(OC)cc3)cc(C(F)(F)F)c2c1N
IC50 at 3 days [1]: > 100 µM
IC90 [2]: > 100 µM

Nc1c(C(=O)N2CC(F)(F)C2)sc2ncccc12
IC50 at 3 days [1]: > 100 µM
IC90 [2]: > 100 µM

COc1ccc(-c2cc(C(F)(F)F)c3c(N)c(C(=O)N4CC(OC)C4)sc3n2)cc1
IC50 at 3 days [1]: 50 µM
selectivity ratio [3]: < 1
IC90 [2]: > 100 µM

COc1ccc(-c2cc(C(F)(F)F)c3cc(C(=O)NC(C)c4ccccc4)sc3n2)cc1 (stereo not given)
IC50 at 3 days [1]: > 100 µM
IC90 [2]: 2.5 µM

COc1ccc(-c2cc(C(F)(F)F)c3c(N)c(C(=O)N4CCCCC4)sc3n2)cc1
IC50 at 3 days [1]: > 100 µM
IC90 [2]: > 100 µM

COc1ccc(-c2cc(C(F)(F)F)c3c(N)c(C(=O)N4CCC4)sc3n2)cc1
IC50 at 3 days [1]: 62 µM
selectivity ratio [3]: < 1
IC90 [2]: > 100 µM

COc1ccc(-c2cc(C(F)(F)F)c3c(N)c(C(=O)Nc4cccc(C)c4C)sc3n2)cn1
IC50 at 3 days [1]: 31 µM
IC90 [2]: 1.4 µM

Nc1c(C(=O)NCc2ccc(F)cc2)sc2nc(-c3ccccc3)ccc12
IC50 at 3 days [1]: > 100 µM
IC90 [2]: > 100 µM

COc1ccc(-c2cc(C(F)(F)F)c3c(N)c(C(=O)NC4COC4)sc3n2)cc1
IC50 at 3 days [1]: > 100 µM
IC90 [2]: > 100 µM

COc1ccc(-c2cc(C(F)(F)F)c3c(N)c(C(=O)N4C5CCCC4COC5)sc3n2)cc1
IC50 at 3 days [1]: 42 µM
selectivity ratio [3]: < 1
IC90 [2]: > 100 µM

COc1ccc(-c2cc(C(F)(F)F)c3c(N)c(C(=O)Nc4ccc(C)cc4C)sc3n2)cc1
IC50 at 3 days [1]: > 100 µM
IC90 [2]: > 100 µM

COc1cccc(-c2cc(C(F)(F)F)c3c(N)c(C(=O)Nc4cccc(C)c4C)sc3n2)c1
IC50 at 3 days [1]: 52 µM
IC90 [2]: > 100 µM

COc1ccc(-c2ccc3c(N)c(C(=O)N4CCOCC4)sc3n2)cc1OC
IC50 at 3 days [1]: > 100 µM
IC90 [2]: > 100 µM

COc1ccc(-c2cc(C(F)(F)F)c3c(N)c(C(=O)N4CC(F)(F)C4)sc3n2)cc1
IC50 at 3 days [1]: > 50 µM
selectivity ratio [3]: < 1
IC90 [2]: > 50 µM

COc1ccc(-c2ccc3c(N)c(C(=O)Nc4cccc(C)c4C)sc3n2)cc1
IC50 at 3 days [1]: > 100 µM
IC90 [2]: > 100 µM

COc1ccc(-c2cc(C(F)(F)F)c3c(N)c(C(=O)N4CCCC4)sc3n2)cc1
IC50 at 3 days [1]: > 50 µM
IC90 [2]: > 50 µM

Nc1c(C(=O)NCc2ccc(F)cc2)sc2ncccc12
IC50 at 3 days [1]: > 100 µM
IC90 [2]: > 100 µM

COc1ccc(-c2cc(C(F)(F)F)c3c(N)c(C(=O)N4CCCC4(C)C)sc3n2)cc1
IC50 at 3 days [1]: 78 µM
selectivity ratio [3]: < 1
IC90 [2]: > 100 µM

Nc1c(C(=O)N2CC(F)(F)C2)sc2nc(-c3ccccc3)ccc12
IC50 at 3 days [1]: 38 µM
IC90 [2]: > 100 µM

Cc1ccc(NC(=O)c2sc3nc(C)cc(C(F)(F)F)c3c2N)cc1
IC50 at 3 days [1]: 31 µM
IC90 [2]: > 100 µM

Cc1cccc(NC(=O)c2sc3nc(-c4ccccc4)cc(C(F)(F)F)c3c2N)c1C
IC50 at 3 days [1]: > 100 µM
IC90 [2]: > 100 µM

From ChEMBL document CHEMBL6153157, “Novel 3-Aminothieno[2,3-b]pyridine-2-carboxamides with Activity against Mycobacterium tuberculosis” (ACS Med Chem Lett, 2025)
